# Where two headings read alike, the source gives them in different places.
# How the values were obtained:
# Format in all cases: cell-based
# [1] = test system: VP01 (suspected fungal vaginal pathogen); test: Zone of inhibition against isolated vaginal pathogen VP01
# From the text: (§1) Antimicrobial activities against isolated vaginal pathogens (i.e. VP01, VP02, VP06, VP03, VP04 and VP05) were individually screened and analyzed to conclude and find effective probiotic compositions.
# (§2) Different combination of selected probiotics strains with variation in potency were formed and underwent potential antimicrobial effect against isolated vaginal bacterial and fungal pathogens. The extents of zone of inhibition in antimicrobial activity were considered for selection of formulation. The probiotic compositions of the present invention comprise (a) Bacillus coagulans (B.C.); (b) Bacillus subtilis (B.S.); (c) citric acid (CA); (d) gallic acid (GA); (e) beta-cyclodextrin (adhesive); (f) allentoin and (g) a pH regulator (h) lanolin (i) polyethylene glycol (j) a cooling agent etc., and (k) a bioadhesive.
# (§3) The zones of inhibition were also examined for each individual components at the same concentration levels as present in the respective combined formulations.
# [2] = test system: VP02 (suspected fungal vaginal pathogen); test: Zone of inhibition against isolated vaginal pathogen VP02
# From the text: as §1, §2, §3
# [3] = test system: VP06, identified as Candida albicans
# From the text: as §1, §2, §3
# Vaginal swabs obtained from infected patients were grown on Potato Dextrose Agar (PDA) media, and thereafter single colonies were re-streaked on Potato Dextrose Agar plates to obtain fungal isolates, which were designated as VP06, VP02 and VP01. Potato Dextrose Agar is a common medium usually practiced to isolate and culture various fungi only, specifically applicable for yeast or fungi.
# [4] = test system: VP03, identified as Gardnerella vaginalis; test: Zone of inhibition against isolated vaginal pathogen VP03
# From the text: as §1, §2, §3
# [5] = test system: VP04 (suspected bacterial vaginal pathogen); test: Zone of inhibition against isolated vaginal pathogen VP04
# From the text: as §1, §2, §3
# [6] = test system: VP05 (suspected bacterial vaginal pathogen); test: Zone of inhibition against isolated vaginal pathogen VP05
# From the text: as §1, §2, §3
# [7] = Table 1 initial studies, n-i = no zone of inhibition
# [8] = Table 4, amounts as in formulation A: B.c 700, B.s 25 million cfu, CA 10, GA 100 mg, n-i = no zone
# [9] = Table 5, amounts as in formulation B: B.c 550, B.s 125 million cfu, CA 20, GA 60 mg, n-i = no zone
# [10] = Table 6, amounts as in formulation C: B.c 350, B.s 350 million cfu, CA 20, GA 40 mg, n-i = no zone
# [11] = Table 7, amounts as in formulation D: B.c 125, B.s 550 million cfu, CA 60, GA 20 mg, n-i = no zone
# [12] = Table 8, amounts as in formulation E: B.c 25, B.s 700 million cfu, CA 100, GA 10 mg, n-i = no zone
Structure (SMILES),"ZONE OF INHIBITION VP01 [1, 7] [mm]","ZONE OF INHIBITION VP01 [1, 8]","ZONE OF INHIBITION VP01 [1, 9]","ZONE OF INHIBITION VP01 [1, 10] [mm]","ZONE OF INHIBITION VP01 [1, 11] [mm]","ZONE OF INHIBITION VP01 [1, 12] [mm]","ZONE OF INHIBITION VP02 [2, 7] [mm]","ZONE OF INHIBITION VP02 [2, 8]","ZONE OF INHIBITION VP02 [2, 9]","ZONE OF INHIBITION VP02 [2, 10]","ZONE OF INHIBITION VP02 [2, 11]","ZONE OF INHIBITION VP06 [3, 7]","ZONE OF INHIBITION VP06 [3, 8]","ZONE OF INHIBITION VP06 [3, 9]","ZONE OF INHIBITION VP06 [3, 10]","ZONE OF INHIBITION VP06 [3, 11]","ZONE OF INHIBITION VP06 [3, 12]","ZONE OF INHIBITION VP03 [4, 7]","ZONE OF INHIBITION VP03 [4, 9] [mm]","ZONE OF INHIBITION VP03 [4, 10] [mm]",further results
"O=C(O)c1cc(O)c(O)c(O)c1 [Gallic Acid (GA), gallic acid]",35,19 mm,17 mm,16,16,13,35,16 mm,15 mm,15 mm,18 mm,9 mm,n-i,n-i,n-i,N-i,n-i,n-i,5,7,"ZONE OF INHIBITION VP02 ([2]; Table 8, amounts as in formulation E: B.c 25, B.s 700 million cfu, CA 100, GA 10 mg, n-i = no zone, listed as GA): n-i; ZONE OF INHIBITION VP02 ([2]; Table 8, amounts as in formulation E: B.c 25, B.s 700 million cfu, CA 100, GA 10 mg, n-i = no zone, listed as Gallic Acid): not active; ZONE OF INHIBITION VP03 [4, 8]: 8 mm; ZONE OF INHIBITION VP03 ([4]; Table 7, amounts as in formulation D: B.c 125, B.s 550 million cfu, CA 60, GA 20 mg, n-i = no zone, listed as GA): n-i; ZONE OF INHIBITION VP03 ([4]; Table 7, amounts as in formulation D: B.c 125, B.s 550 million cfu, CA 60, GA 20 mg, n-i = no zone, listed as Gallic Acid): not active; ZONE OF INHIBITION VP03 [4, 12]: n-i; ZONE OF INHIBITION VP04 [5, 7]: 9 mm; ZONE OF INHIBITION VP04 [5, 8]: 10 mm; ZONE OF INHIBITION VP04 [5, 9]: 10 mm; ZONE OF INHIBITION VP04 [5, 10]: 9 mm; ZONE OF INHIBITION VP04 [5, 11]: 9 mm; ZONE OF INHIBITION VP04 [5, 12]: 7 mm; ZONE OF INHIBITION VP05 [6, 7]: 11 mm; ZONE OF INHIBITION VP05 [6, 8]: 7 mm; ZONE OF INHIBITION VP05 [6, 9]: 7 mm; ZONE OF INHIBITION VP05 [6, 10]: 6 mm; ZONE OF INHIBITION VP05 [6, 11]: 6 mm; ZONE OF INHIBITION VP05 [6, 12]: 6 mm"
"O=C(O)CC(O)(CC(=O)O)C(=O)O [Citric Acid (CA), citric acid]",41,n-i,n-i,23,22,25,30,n-i,n-i,n-i,n-i,n-i,n-i,n-i,n-i,n-i,n-i,10 mm,7,8,"ZONE OF INHIBITION VP02 ([2]; Table 8, amounts as in formulation E: B.c 25, B.s 700 million cfu, CA 100, GA 10 mg, n-i = no zone, listed as CA): n-i; ZONE OF INHIBITION VP02 ([2]; Table 8, amounts as in formulation E: B.c 25, B.s 700 million cfu, CA 100, GA 10 mg, n-i = no zone, listed as Citric acid): not active; ZONE OF INHIBITION VP03 ([4]; Table 4, amounts as in formulation A: B.c 700, B.s 25 million cfu, CA 10, GA 100 mg, n-i = no zone, listed as CA): n-i; ZONE OF INHIBITION VP03 ([4]; Table 4, amounts as in formulation A: B.c 700, B.s 25 million cfu, CA 10, GA 100 mg, n-i = no zone, listed as Citric Acid): unable to cause any inhibitory effect; ZONE OF INHIBITION VP03 ([4]; Table 7, amounts as in formulation D: B.c 125, B.s 550 million cfu, CA 60, GA 20 mg, n-i = no zone, listed as CA): n-i; ZONE OF INHIBITION VP03 ([4]; Table 7, amounts as in formulation D: B.c 125, B.s 550 million cfu, CA 60, GA 20 mg, n-i = no zone, listed as Citric acid): not active; ZONE OF INHIBITION VP03 [4, 12]: 9 mm; ZONE OF INHIBITION VP04 [5, 7]: 11 mm; ZONE OF INHIBITION VP04 [5, 8]: n-i; ZONE OF INHIBITION VP04 [5, 9]: n-i; ZONE OF INHIBITION VP04 [5, 10]: 10 mm; ZONE OF INHIBITION VP04 [5, 11]: 10 mm; ZONE OF INHIBITION VP04 [5, 12]: 11 mm; ZONE OF INHIBITION VP05 [6, 7]: 19 mm; ZONE OF INHIBITION VP05 [6, 8]: n-i; ZONE OF INHIBITION VP05 [6, 9]: n-i; ZONE OF INHIBITION VP05 [6, 10]: 8 mm; ZONE OF INHIBITION VP05 [6, 11]: 8 mm; ZONE OF INHIBITION VP05 [6, 12]: 10 mm"

# Reference: patent US20250009815A1, “COMPOSITION FOR COMPETITIVE INHIBITION OF PATHOGENS AND RESTORATION OF MICROBIAL ECOLOGICAL BALANCE” (priority 2019, published 2025)
